From patent US11730741B2, “6-chromanol derivatives for use as a medicament” (Sulfateq B.V., priority 2017, dated 2023)
Marks after values point to notes of the source that are not given here.

Columns and labels:
[1] = system: experimental in vivo models of COPD; details: cited from earlier work
[2] = screening of a range of SUL compounds including trolox; cited from earlier work
[3] = system: isolated porcine intrarenal arteries; test: Myography: phenylephrine-induced constriction of isolated porcine intrarenal arteries; details: 30 min pre-incubation
Description: Porcine kidneys were obtained from a local slaughterhouse (Kroon Vlees, Gotenburgweg 30, 9723 ™ Groningen, The Netherlands) and transported on ice in normal physiological Krebs buffer containing 120 mM NaCl, 6 mM KCl, 2.5 mM CaCl2×2H2O, 1.2 mM MgCl2×6H2O, 1.2 mM NaH2PO4×H2O, 25 mM NaHCO3 and 11.4 mM D-(+)-Glucose monohydrate (all ingredients were purchased from Merck) in ultrapure water.
The renal artery tree was dissected from the kidney, cleaned of surrounding connective tissue and cut into equally-sized ring segments (2 mm in length). In some rings, endothelium denudation was performed by gentle rubbing of the intimal surface with a paper clip. Rings were mounted in organ baths as described previously (Buikema et al., 2000).
Arterial rings were washed thoroughly by replacing Krebs buffer and allowed to equilibrate for a period of 60 min under 1.4 g of resting tension before they were assessed for viability by inducing 2 subsequent constrictions with KCl (60 mM). […] After washout and stabilization, rings were treated for 30 minutes by incubation with vehicle (0.1% DMSO), SUL-121, SUL-150 or SUL-151, followed by subsequent incubation with cumulative doses of phenylephrine.
Dose-dependent constriction responses to phenylephrine (10^−8M-10^−4M) were recorded in isolated porcine intrarenal arteries. Buffer was warmed to 37° C. and aerated with 95% O2 and 5% CO2 before use.
Vascular constriction responses are expressed as percentage of final response to KCl. Data are expressed as mean±SEM. *p<0.05.
To explore the effects of 2R and 2S-(6-hydroxy-2,5,7,8-tetramethylchroman-2-yl)(piperazin-1-yl)methanone (resp. SUL-150 and SUL-151) on constriction of isolated porcine intrarenal arteries, cumulative dose response curves to the α1 adrenoceptor agonist phenylephrine (PE) were constructed in the presence and absence of SUL-150 resp SUL-151 (FIG. 1).

[4] = target: T1, human α1 adrenoceptor subtype A (Homo sapiens, UniProt P35348); test: Intracellular calcium assay (FLIPR Calcium 6), phenylephrine-stimulated CHO cells overexpressing α1A adrenoceptor; assay type: cell-based; details: for logEC50 of phenylephrine-induced calcium influx, α1A: 30 min at 37° C.
T1 construct: expressed in transfected cells; host or cells: CHO-K1
T1 sequence (P35348 1-466): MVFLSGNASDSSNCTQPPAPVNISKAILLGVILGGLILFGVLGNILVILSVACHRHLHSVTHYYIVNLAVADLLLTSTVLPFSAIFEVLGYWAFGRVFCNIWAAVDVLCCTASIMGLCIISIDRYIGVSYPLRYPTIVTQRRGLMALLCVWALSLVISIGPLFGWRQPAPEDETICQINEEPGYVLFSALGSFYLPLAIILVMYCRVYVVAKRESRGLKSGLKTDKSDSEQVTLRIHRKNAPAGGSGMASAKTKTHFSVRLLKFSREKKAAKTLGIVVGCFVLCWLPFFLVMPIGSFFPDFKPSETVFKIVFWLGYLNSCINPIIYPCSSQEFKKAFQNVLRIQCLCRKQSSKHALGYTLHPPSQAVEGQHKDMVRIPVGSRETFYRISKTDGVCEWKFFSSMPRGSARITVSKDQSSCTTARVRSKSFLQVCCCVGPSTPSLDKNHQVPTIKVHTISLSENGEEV
Description: (§1) CHO—K1 cells were stably transfected with a plasmid containing human α1-AR subtypes A, B and D in separate cell lines in DMEM-F12 medium with 10% FBS, 1% penicillin-streptomycin and 200 μg/mL Geneticin (G418, Invitrogen, Carlsbad, Calif.).
(§2) On the next day, CHO cells were treated with either vehicle (0.1% DMSO) or SUL-150 resp. SUL-151 for 30 min at 37° C. and stimulated with a 3-fold dilution series of PE ([…]). [Ca^2+]i was measured using the fluorescent FLIPR Calcium 6 assay kit (Molecular Devices) in immortalized CHO cells stably expressing the α1 adrenoceptor.
(§3) Initially, calcium responses induced by non-cumulative concentration series of phenylephrine were investigated using fluorescent measurements in α1A adrenoceptor-overexpressing CHO cells treated with SUL-150 and SUL-151 (FIG. 4). Fluorescent measurement data was processed and analyzed in SoftMax Pro 7 and expressed as % of baseline AUC with a 3-fold multiplier using an average of first 10 measurement points as baseline.
(§4) The “Vehicle” used in all experiments is 0.1% DMSO solution.

[5] = target: T2, human α1 adrenoceptor subtype B (Homo sapiens, UniProt P35368); test: Intracellular calcium assay (FLIPR Calcium 6), phenylephrine-stimulated CHO cells overexpressing α1B adrenoceptor; assay type: cell-based; details: for logEC50 of phenylephrine-induced calcium influx, α1B: 30 min at 37° C.
T2 construct: expressed in transfected cells; host or cells: CHO-K1
T2 sequence (P35368 1-520): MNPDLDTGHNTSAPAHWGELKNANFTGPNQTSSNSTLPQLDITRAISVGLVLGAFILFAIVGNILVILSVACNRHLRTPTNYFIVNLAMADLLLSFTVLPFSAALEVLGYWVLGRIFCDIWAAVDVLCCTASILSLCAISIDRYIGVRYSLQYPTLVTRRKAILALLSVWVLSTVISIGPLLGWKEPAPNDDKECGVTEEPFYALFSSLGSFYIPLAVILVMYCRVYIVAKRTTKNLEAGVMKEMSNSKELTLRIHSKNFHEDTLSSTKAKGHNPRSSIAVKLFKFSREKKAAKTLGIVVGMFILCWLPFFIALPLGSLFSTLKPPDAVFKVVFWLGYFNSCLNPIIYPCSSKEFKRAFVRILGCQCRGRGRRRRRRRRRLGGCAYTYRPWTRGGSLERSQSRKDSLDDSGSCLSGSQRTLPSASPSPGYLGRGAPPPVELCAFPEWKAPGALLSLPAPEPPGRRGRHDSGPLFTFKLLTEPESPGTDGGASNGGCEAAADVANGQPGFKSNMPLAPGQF
Description: as §1, §2, §3, §4

[6] = target: T3, human α1 adrenoceptor subtype D (Homo sapiens, UniProt P25100); test: Intracellular calcium assay (FLIPR Calcium 6), phenylephrine-stimulated CHO cells overexpressing α1D adrenoceptor; assay type: cell-based; details: for logEC50 of phenylephrine-induced calcium influx, α1D: 30 min at 37° C.
T3 construct: expressed in transfected cells; host or cells: CHO-K1
T3 sequence (P25100 1-572): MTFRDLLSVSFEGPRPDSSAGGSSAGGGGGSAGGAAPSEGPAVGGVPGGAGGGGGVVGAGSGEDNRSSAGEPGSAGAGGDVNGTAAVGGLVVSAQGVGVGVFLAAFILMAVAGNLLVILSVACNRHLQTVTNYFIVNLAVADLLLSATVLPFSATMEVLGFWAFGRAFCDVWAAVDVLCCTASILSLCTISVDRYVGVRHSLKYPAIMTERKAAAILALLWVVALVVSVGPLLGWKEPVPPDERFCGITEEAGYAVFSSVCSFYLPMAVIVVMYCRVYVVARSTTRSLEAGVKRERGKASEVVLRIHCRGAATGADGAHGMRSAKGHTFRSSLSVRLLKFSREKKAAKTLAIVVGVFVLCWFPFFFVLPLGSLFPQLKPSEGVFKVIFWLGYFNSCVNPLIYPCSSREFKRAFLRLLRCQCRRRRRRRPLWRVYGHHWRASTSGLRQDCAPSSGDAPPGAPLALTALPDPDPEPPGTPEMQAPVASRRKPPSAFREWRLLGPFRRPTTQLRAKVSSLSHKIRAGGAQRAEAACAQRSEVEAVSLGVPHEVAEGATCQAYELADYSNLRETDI
Description: as §1, §2, §3, §4

[7] = target: T4, α1A adrenoceptor (Homo sapiens, UniProt P35348); test: Radioligand displacement binding assay with [7-Methoxy-3H]-prazosin in α1A adrenoceptor transgenic CHO cells
T4 construct: expressed in transfected cells; host or cells: CHO
T4 sequence (P35348 1-466): T1 sequence (P35348 1-466)
Text: We therefore explored whether SUL-150 could directly interact with the α1 adrenoceptor as a receptor antagonist.

[8] = in the presence of 10 μM compound
[9] = in the presence of 30 μM compound
[10] = in the presence of 100 μM compound

Row | SMILES | logEC50 of phenylephrine-induced constriction responses [3, 8] | logEC50 of phenylephrine-induced constriction responses [3, 9] | logEC50 of phenylephrine-induced constriction responses [3, 10] | effect on PE-induced calcium transients, α1A subtype, in words [4] | logEC50 of phenylephrine-induced calcium influx, α1A ([4]; 10 μM compound) | logEC50 of phenylephrine-induced calcium influx, α1A ([4]; 30 μM compound) | logEC50 of phenylephrine-induced calcium influx, α1A ([4]; 100 μM compound) | effect on PE-induced calcium transients, α1B subtype, in words [5] | effect on PE-induced calcium transients, α1D subtype, in words [6] | further results
1 | Cc1c(C)c2c(c(C)c1O)CCC(C)(C(=O)N1CCNCC1)O2 (racemic) [SUL-121, (6-hydroxy-2,5,7,8-tetramethylchroman-2-yl)(piperazin-1-yl)methanone] | – | – | – | – | – | – | – | – | – | LPS-induced airway neutrophilia [1]: dose-dependently reduced; LPS-induced attenuation of H2S production [1]: dose-dependently reduced; neutrophilia-related as well as unrelated ROS production [1]: dose-dependently reduced; nuclear translocation of the antioxidative response regulator Nrf2 [1]: inhibited; anti-oxidant effect [2]: very potent anti-oxidant effect
2 | Cc1c(C)c2c(c(C)c1O)CCC(C)(C(=O)N1CCNCC1)O2 (stereo not shown) [SUL-150, (6-hydroxy-2,5,7,8-tetramethylchroman-2-yl)(piperazin-1-yl)methanone] | −5.11 ± 0.09* | −5.06 ± 0.06* | −4.44 ± 0.09* | shifted dose response curves rightwards | −7.62 ± 0.03 | −7.28 ± 0.03 | −6.88 ± 0.03 | shifted dose response curves rightwards | shifted dose response curves rightwards | logEC50 of phenylephrine-induced calcium influx, α1B ([5]; 10 μM compound): −7.51 ± 0.08; logEC50 of phenylephrine-induced calcium influx, α1B ([5]; 30 μM compound): −7.24 ± 0.07; logEC50 of phenylephrine-induced calcium influx, α1B ([5]; 100 μM compound): −6.72 ± 0.08; logEC50 of phenylephrine-induced calcium influx, α1D ([6]; 10 μM compound): −7.37 ± 0.10; logEC50 of phenylephrine-induced calcium influx, α1D ([6]; 30 μM compound): −7.04 ± 0.06; logEC50 of phenylephrine-induced calcium influx, α1D ([6]; 100 μM compound): −6.80 ± 0.10; potency in displacing the radioligand, compared to SUL-151, in words [7]: significantly more potent
3 | Cc1c(C)c2c(c(C)c1O)CC[C@@](C)(C(=O)N1CCNCC1)O2 [SUL-151, (2S)(6-hydroxy-2,5,7,8-tetramethylchroman-2-yl)(piperazin-1-yl)methanone] | −5.82 ± 0.05 | −5.89 ± 0.04 | −5.77 ± 0.04 | did not affect calcium transients | −8.09 ± 0.10 | −8.09 ± 0.11 | −7.98 ± 0.10 | did not affect calcium transients | did not affect calcium transients | concentrations at which [7-Methoxy-3H]-prazosin was displaced [7]: higher than 10 μM
